- melting point: 104 to 105 °C
Structure (SMILES): Cn1cccc1CNCC1(c2cccc(C(F)(F)F)c2)CCN(C(=O)CN2CCN(c3cnccn3)CC2)CC1 [Compound 1, [(1-Methyl-1H-pyrrol-2-yl)methyl][[1-[(4-pyrazin-2-ylpiperazin-1-yl)acetyl]-4-[3-(trifluoromethyl)phenyl]piperidin-4-yl]methyl]amine]
